According to ChEMBL document CHEMBL4033623, “Synthesis of xanthone derivatives and studies on the inhibition against cancer cells growth and synergistic combinations of them” (Eur J Med Chem, 2017):
The source made the active and inactive calls. No cut-off for these calls is given here.

Assays:
[1] = tested on: MDA-MB-231; experiment: Induction of apoptosis in human MDA-MB-231 cells assessed as viable cells at 24 uM after 48 hrs by Annexin-V/FITC/PI staining based flow cytometry (reference value: 88.78 %); type: functional; details: MDA-MB-231, 48 h, read-out: Activity
[2] = tested on: MDA-MB-231; experiment: Induction of apoptosis in human MDA-MB-231 cells assessed as late apoptotic cells at 24 uM after 48 hrs by Annexin-V/FITC/PI staining based flow cytometry (reference value: 1.18 %); type: functional
[3] = tested on: MDA-MB-231; experiment: Induction of apoptosis in human MDA-MB-231 cells assessed as necrotic cells at 96 uM after 48 hrs by Annexin-V/FITC/PI staining based flow cytometry (reference value: 10.01 %); type: functional
[4] = tested on: MDA-MB-231; experiment: Induction of apoptosis in human MDA-MB-231 cells assessed as increase in cleaved caspase-3 expression at 24 to 96 uM after 48 hrs by Western blot analysis; type: functional, cell-based
[5] = tested on: MDA-MB-231; experiment: Induction of apoptosis in human MDA-MB-231 cells assessed as necrotic cells at 24 uM after 48 hrs by Annexin-V/FITC/PI staining based flow cytometry (reference value: 10.01 %); type: functional
[6] = tested on: MDA-MB-231; experiment: Induction of apoptosis in human MDA-MB-231 cells assessed as early apoptotic cells at 24 uM after 48 hrs by Annexin-V/FITC/PI staining based flow cytometry (reference value: 0.03 %); type: functional
[7] = tested on: MDA-MB-231; experiment: Cell cycle arrest in human MDA-MB-231 cells assessed as increase in accumulation at G2/M phase at 48 uM after 48 hrs by propidium iodide staining based flow cytometric method relative to control; type: functional
[8] = tested on: MDA-MB-231; experiment: Induction of apoptosis in human MDA-MB-231 cells assessed as early apoptotic cells at 48 uM after 48 hrs by Annexin-V/FITC/PI staining based flow cytometry (reference value: 0.03 %); type: functional
[9] = tested on: K562; experiment: Antiproliferative activity against human K562 cells after 48 hrs by CCK8 assay; type: functional, cell-based; details: K562, 48 h
[10] = tested on: MDA-MB-231; experiment: Decrease in MDM2 level in human MDA-MB-231 cells at 24 to 96 uM after 48 hrs by Western blot analysis; type: functional, cell-based
[11] = tested on: MDA-MB-231; experiment: Antiproliferative activity against human MDA-MB-231 cells after 48 hrs by CCK8 assay; type: functional, cell-based; details: MDA-MB-231, 48 h
[12] = tested on: MDA-MB-231; experiment: Induction of apoptosis in human MDA-MB-231 cells assessed as late apoptotic cells at 96 uM after 48 hrs by Annexin-V/FITC/PI staining based flow cytometry (reference value: 1.18 %); type: functional
[13] = tested on: MDA-MB-231; experiment: Induction of apoptosis in human MDA-MB-231 cells assessed as early apoptotic cells at 96 uM after 48 hrs by Annexin-V/FITC/PI staining based flow cytometry (reference value: 0.03 %); type: functional
[14] = tested on: MDA-MB-231; experiment: Induction of apoptosis in human MDA-MB-231 cells assessed as increase in cleaved PARP level at 24 to 96 uM after 48 hrs by Western blot analysis; type: functional, cell-based
[15] = tested on: MDA-MB-231; experiment: Decrease in caspase-3 level in human MDA-MB-231 cells at 24 to 96 uM after 48 hrs by Western blot analysis; type: functional, cell-based
[16] = tested on: COLO 320; experiment: Antiproliferative activity against human COLO320 cells after 48 hrs by CCK8 assay; type: functional, cell-based; details: COLO 320, 48 h
[17] = tested on: MDA-MB-231; experiment: Induction of apoptosis in human MDA-MB-231 cells assessed as necrotic cells at 48 uM after 48 hrs by Annexin-V/FITC/PI staining based flow cytometry (reference value: 10.01 %); type: functional
[18] = tested on: MCF7; experiment: Antiproliferative activity against human MCF7 cells after 48 hrs by CCK8 assay; type: functional, cell-based; details: MCF7, 48 h
[19] = tested on: MDA-MB-231; experiment: Increase in p53 level in human MDA-MB-231 cells at 24 to 96 uM after 48 hrs by Western blot analysis; type: functional, cell-based
[20] = tested on: MDA-MB-231; experiment: Induction of apoptosis in human MDA-MB-231 cells after 48 hrs by Annexin-V/FITC/PI staining based flow cytometry; type: functional, cell-based
[21] = tested on: MDA-MB-231; experiment: Induction of apoptosis in human MDA-MB-231 cells assessed as late apoptotic cells at 48 uM after 48 hrs by Annexin-V/FITC/PI staining based flow cytometry (reference value: 1.18 %); type: functional
[22] = tested on: HepG2; experiment: Antiproliferative activity against human HepG2 cells after 48 hrs by CCK8 assay; type: functional, cell-based; details: HepG2, 48 h
[23] = tested on: MDA-MB-231; experiment: Induction of apoptosis in human MDA-MB-231 cells assessed as viable cells at 96 uM after 48 hrs by Annexin-V/FITC/PI staining based flow cytometry (reference value: 88.78 %); type: functional; details: MDA-MB-231, 48 h, read-out: Activity
[24] = tested on: MDA-MB-231; experiment: Induction of apoptosis in human MDA-MB-231 cells assessed as viable cells at 48 uM after 48 hrs by Annexin-V/FITC/PI staining based flow cytometry (reference value: 88.78 %); type: functional; details: MDA-MB-231, 48 h, read-out: Activity
[25] = tested on: MDA-MB-231; experiment: Decrease in caspase-9 level in human MDA-MB-231 cells at 24 to 96 uM after 48 hrs by Western blot analysis; type: functional, cell-based

SMILES: Cc1ccc2c(=O)c3cccc(CC(=O)O)c3oc2c1C [VADIMEZAN]
- viability at 24 µM [1]: 80.7%
- Activity [2]: 6.65%
- Activity [3]: 21.83%
- Activity [4]: Active
- Activity [5]: 12.09%
- Activity [6]: 0.53%
- Activity [7]: 25%
- Activity [8]: 2.22%
- IC50 [9]: 57.4 µM
- Activity [10]: Active
- IC50 [11]: 48.4 µM
- Activity [12]: 14.93%
- Activity [13]: 4.48%
- Activity [14]: Active
- Activity [15]: Active
- IC50 [16]: 39.5 µM
- Activity [17]: 14.88%
- IC50 [18]: 54.4 µM
- Activity [19]: Active
- Activity [20]: Dose-dependent effect
- Activity [21]: 17.03%
- IC50 [22]: 100 µM
- viability at 96 µM [23]: 58.8%
- viability at 48 µM [24]: 65.9%
- Activity [25]: Active
